From the NIST ThermoML archive (doi:10.1016/j.jct.2015.06.036)
± gives the expanded uncertainty stated by the source.

Key:
[1] = 101 kPa, Liquid; for viscosity: Falling or rolling sphere viscometry; for speed of sound: Sing-around technique in a fixed-path interferometer; for mass density: Vibrating tube method
[2] = refractive index (Na D-line) (dimensionless); settings: 101 kPa, Liquid, Standard Abbe refractometry
[3] = refractive index (Na D-line) (dimensionless); xn = mol fraction of the nth substance listed; settings: 101 kPa, Liquid, Standard Abbe refractometry, x2 = 0
[4] = xn = mol fraction of the nth substance listed; settings: 101 kPa, Liquid, x2 = 0; for viscosity: Falling or rolling sphere viscometry; for speed of sound: Sing-around technique in a fixed-path interferometer; for mass density: Vibrating tube method

CCCCn1cc[n+](C)c1.F[B-](F)(F)F [1-butyl-3-methylimidazolium tetrafluoroborate]
Settings	mass density, [1] [kg/m3]	refractive index, [2]	speed of sound, [1] [m/s]	viscosity, [1] [mPa·s]
278.15 K	1215.9 ± 0.4	–	1615 ± 2	361 ± 26
288.15 K	1208.5 ± 0.4	1.4243 ± 0.0005	1590 ± 2	186 ± 11
298.15 K	1201.3 ± 0.4	1.4217 ± 0.0005	1565 ± 2	105 ± 5
308.15 K	1194.2 ± 0.4	1.419 ± 0.0005	1542 ± 2	64.8 ± 2.7
318.15 K	1187.2 ± 0.4	1.4164 ± 0.0005	1519 ± 2	42.7 ± 1.8

CO [methanol]
Settings	mass density, [1] [kg/m3]	refractive index, [2]	speed of sound, [1] [m/s]	viscosity, [1] [mPa·s]
278.15 K	805.4 ± 0.2	–	1169 ± 2	0.687 ± 0.028
288.15 K	796 ± 0.2	1.3316 ± 0.0005	1135 ± 2	0.596 ± 0.024
298.15 K	786.6 ± 0.2	1.3265 ± 0.0005	1102 ± 2	0.524 ± 0.021
308.15 K	777.1 ± 0.2	1.3224 ± 0.0005	1070 ± 2	0.466 ± 0.019
318.15 K	767.6 ± 0.2	1.3182 ± 0.0005	1037 ± 2	0.42 ± 0.017

CCn1cc[n+](C)c1.F[B-](F)(F)F [1-ethyl-3-methylimidazolium tetrafluoroborate]
Settings	mass density, [1] [kg/m3]	refractive index, [2]	speed of sound, [1] [m/s]	viscosity, [1] [mPa·s]
278.15 K	1305.3 ± 1.5	–	1677 ± 3	101 ± 5
288.15 K	1297.6 ± 1.5	1.4143 ± 0.0006	1653 ± 3	62 ± 2.6
298.15 K	1290 ± 1.5	1.4118 ± 0.0006	1629 ± 3	41 ± 1.7
308.15 K	1282.4 ± 1.5	1.4092 ± 0.0006	1606 ± 3	28.8 ± 1.2
318.15 K	1274.9 ± 1.5	1.4067 ± 0.0006	1583 ± 3	21.2 ± 0.9

CO [methanol] + CCCCn1cc[n+](C)c1.F[B-](F)(F)F
Settings	mass density, [4] [kg/m3]	refractive index, [3]	speed of sound, [4] [m/s]	viscosity, [4] [mPa·s]
278.15 K	805.4 ± 0.2	–	1169 ± 2	0.687 ± 0.028
288.15 K	796 ± 0.2	1.3316 ± 0.0005	1135 ± 2	0.596 ± 0.024
298.15 K	786.6 ± 0.2	1.3265 ± 0.0005	1102 ± 2	0.524 ± 0.021
308.15 K	777.1 ± 0.2	1.3224 ± 0.0005	1070 ± 2	0.466 ± 0.019
318.15 K	767.6 ± 0.2	1.3182 ± 0.0005	1037 ± 2	0.42 ± 0.017

CO [methanol] + CCn1cc[n+](C)c1.F[B-](F)(F)F
Settings	mass density, [4] [kg/m3]	refractive index, [3]	speed of sound, [4] [m/s]	viscosity, [4] [mPa·s]
278.15 K	805.4 ± 0.2	–	1169 ± 2	0.687 ± 0.028
288.15 K	796 ± 0.2	1.3316 ± 0.0005	1135 ± 2	0.596 ± 0.024
298.15 K	786.6 ± 0.2	1.3265 ± 0.0005	1102 ± 2	0.524 ± 0.021
308.15 K	777.1 ± 0.2	1.3224 ± 0.0005	1069 ± 2	0.466 ± 0.019
318.15 K	767.6 ± 0.2	1.3182 ± 0.0005	1037 ± 2	0.42 ± 0.017
